Assay results reported in patent US20250332276A1, “Inhibitors of Molluscum Contagiosum Infection and Methods Using the Same” (priority 2022, published 2025).
Read-outs that look alike come from different tables or passages of the source. *1 amine or outer side, *2 acyl side, *3 side chain or, on linkers, in order; H or OH if unused. Where a SMILES comes first, the peptide text is derived from it. The star is where a group is joined. X1 = CCC(C(=O)Nc1sc(C(=O)*)c(C)c1C(=O)OC)c1ccc(C(F)(F)F)cc1; Ethylenediamine = C(CN[*:2])N[*:1]; Boc = CC(C)(C)OC(=O)*

How the values were obtained:
mD4 [1] = target: T1, mD4 (Molluscum contagiosum virus, UniProt Q98260); test: mD4 dependent processive DNA synthesis in vitro (mD4 anti-processivity); type: biochemical
T1 sequence (Q98260 1-226): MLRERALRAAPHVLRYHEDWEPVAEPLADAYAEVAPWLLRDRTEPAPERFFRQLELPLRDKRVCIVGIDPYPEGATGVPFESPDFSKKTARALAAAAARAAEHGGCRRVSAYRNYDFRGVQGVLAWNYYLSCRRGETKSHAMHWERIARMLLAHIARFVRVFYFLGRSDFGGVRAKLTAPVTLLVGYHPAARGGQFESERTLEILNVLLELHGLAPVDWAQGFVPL

mD4 [2] = target: T1, mD4; test: Micro-Scale Thermophoresis binding to mD4; conditions: microscale thermophoresis
[3] = 3-Day Cell Viability Assay (cytotoxicity)
mD4 (mD4+A20+Pol) = mD4 (mD4+A20+Pol) (Molluscum contagiosum virus subtype 1, UniProt Q98260); test: biochemical
mD4 (mD4+A20+Pol), sequence (Q98260 1-226): as above

[4] = Table 2, read-out: IC50 (μM), mD4 anti-processivity activity

| Compound | IC50 (mD4 [1]; [4]) | IC50 (mD4 (mD4+A20+Pol)) | also measured |
| --- | --- | --- | --- |
| CCC(C(=O)Nc1sc(C(=O)NCCNC(=O)[C@@H](NC(=O)[C@@H](NC(=O)OC(C)(C)C)C(C)C)C(C)C)c(C)c1C(=O)OC)c1ccc(F)cc1 (stereo partly drawn) [Compound 5, Methyl 5-(((6S,9S)-6,9-diisopropyl-2,2-dimethyl-4,7,10-trioxo-3-oxa-5,8,11-triazatridecan-13-yl)carbamoyl)-2-(2-(4-fluorophenyl)butanamido)-4-methylthiophene-3-carboxylate] | 20 µM | – | – |
| CCC(C(=O)Nc1sc(C(=O)NCCNC(=O)[C@@H](NC(=O)[C@@H](NC(=O)[C@@H](NC(=O)OC(C)(C)C)C(C)C)C(C)C)C(C)C)c(C)c1C(=O)OC)c1ccc(F)cc1 (stereo partly drawn) [Compound 8, Methyl 2-(2-(4-fluorophenyl)butanamido)-4-methyl-S-(((6S,9S,12S)-6,9,12-triisopropyl-2,2-dimethyl-4,7,10,13-tetraoxo-3-oxa-5,8,11,14-tetraazahexadecan-16-yl)carbamoyl)thiophene-3-carboxylate] | 10.7 µM | – | – |
| CCC(C(=O)Nc1sc(C(=O)NCCNC(=O)[C@@H](NC(=O)[C@@H](NC(=O)[C@@H](N)C(C)C)C(C)C)C(C)C)c(C)c1C(=O)OC)c1ccc(F)cc1 (stereo partly drawn) [Compound 9, Methyl 5-((2-((S)-2-((S)-2-((S)-2-amino-3-methylbutanamido)-3-methylbutanamido)-3-methylbutanamido)ethyl)carbamoyl)-2-(2-(4-fluorophenyl)butanamido)-4-methylthiophene-3-carboxylate] | – | 5.6 µM | IC50 (mD4 [1]; read-out: IC50, mD4 dependent processive DNA synthesis in vitro): 5 µM; Kd (mD4 [2]): 2.84 µM; CC50 at 3 day [3]: > 100 µM; cytotoxicity, result in words ([3]; cell viability assay or seen when evaluated in mD4-VV infection): no measurable cytotoxicity |
| CCC(C(=O)Nc1sc(C(=O)NCCNC(=O)[C@H](NC(=O)[C@H](NC(=O)[C@H](N)C(C)C)C(C)C)C(C)C)c(C)c1C(=O)OC)c1ccc(F)cc1 (stereo partly drawn) [Compound 20, Methyl 5-((2-((R)-2-((R)-2-((R)-2-amino-3-methylbutanamido)-3-methylbutanamido)-3-methylbutanamido)ethyl)carbamoyl)-2-(2-(4-fluorophenyl)butanamido)-4-methylthiophene-3-carboxylate] | 3 µM | – | – |
| CCC(C(=O)Nc1sc(C(=O)NCCNC(=O)[C@@H](NC(=O)[C@@H](NC(=O)[C@@H](NC(=O)[C@@H](NC(=O)OC(C)(C)C)C(C)C)C(C)C)C(C)C)C(C)C)c(C)c1C(=O)OC)c1ccc(C(F)(F)F)cc1 (stereo partly drawn) [Compound 26, Methyl 4-methyl-5-(((6S,9S,12S,15S)-6,9,12,15-tetraisopropyl-2,2-dimethyl-4,7,10,13,16-pentaoxo-3-oxa-5,8,11,14,17-pentaazanonadecan-19-yl)carbamoyl)-2-(2-(4-(trifluoromethyl)phenyl)butanamido)thiophene-3-carboxylate] (Boc-VVVV-{Ethylenediamine-X1}) | 4.1 µM | – | – |
| CC(C)[C@H](N)C(=O)N[C@H](C(=O)N[C@H](C(=O)O)C(C)C)C(C)C [TriVal-Peptide Control, ((L)-Val)3, reference compound] (H-Val-Val-Val-OH) | – | > 100 µM | – |
